This is an account of results in PubChem BioAssay (NCI).

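Interpolation was linear, between the two tested concentrations surrounding the appropriate level; five concentrations were tested over 48 hours in 96-well plates. Abbreviation: GI50, concentration required for 50% inhibition of growth. TGI denotes the concentration required for complete inhibition of growth.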

What all share (assay): NCI anticancer screen, dose series, 48 h
The test system of experiment [1] is SN12C renal.
Experiment [2] concerns SK-MEL-28 melanoma.
The subject of experiment [3] is RPMI-8226 leukemia.
Experiment [4] relates to SNB-19 CNS.
The test system of experiment [5] is RXF 393 renal.
For experiment [6], the system named is KM12 colon.
Experiment [7] relates to OVCAR-5 ovarian.
Experiment [8] relates to HS 578T breast.
For experiment [9], the system named is TK-10 renal.
Experiment [10] deals with NCI-H460 lung.

In the case of `CC(C)(C)NC/C(=C\c1ccccc1)C(=O)c1ccccc1`, the GI50 was 1.95 µM in experiment [1]; 1.9 µM in [2]; 2.14 µM in experiment [3]; 4.27 µM in experiment [4]; 3.01 µM in experiment [6]; 2.33 µM in experiment [7]. For the same molecule, the results for the GI50 in [8], in experiment [9] and in experiment [10] were 6.11 µM, 0.94 µM and 1.88 µM, respectively. The TGI turned out to be 6.34 µM in [1]; 3.75 µM in experiment [2]; 7.31 µM in experiment [3]; 18.4 µM in [4]; 2.37 µM in experiment [5]; 24.4 µM in [6]. In addition, the TGI in experiment [7] is 4.48 µM; in experiment [8] it was 60.7 µM; in [9] it was 2.28 µM; in experiment [10], 4.57 µM.
With `O=S(=O)(Nc1ccc2ccccc2c1)c1ccc(-c2cnc(C3CC3)o2)cc1`, the GI50 was 3.69 µM in experiment [1]; 4.8 µM in experiment [2]; 3.18 µM in experiment [3]; 1.49 µM in experiment [4]; 0.573 µM in [5]; 0.624 µM in [6]. The GI50 in experiment [7] is 3.01 µM; in experiment [8], 0.811 µM; in experiment [9], 5.81 µM; in experiment [10], 0.56 µM. Also, the TGI in experiment [1] was 17.3 µM; in experiment [2], 20.8 µM; in experiment [3], 24.8 µM; in experiment [4], greater than 100 µM; in experiment [5] it was 3.92 µM; in [6], 14.7 µM. For the same molecule, the TGI in [7] is 23.4 µM; in experiment [8] it was 13.2 µM; in experiment [9], greater than 100 µM; in experiment [10], 10.9 µM.
As for `O=C(Cn1c(C(=O)c2ccccc2)nc2ccccc21)c1ccc(F)cc1`, the GI50 is greater than 30.7 µM in experiment [1]; 7.07 µM in [2]; 3.47 µM in experiment [3]; 25.2 µM in experiment [4]; 7.29 µM in [5]; 2.48 µM in experiment [6]. In addition, the GI50 was greater than 100 µM in experiment [7], 11.5 µM in experiment [8], 14.2 µM in experiment [9] and 12 µM in experiment [10]. In addition, the TGI in experiment [1] is greater than 100 µM; in experiment [2] it was greater than 100 µM; in experiment [3] it was greater than 52.5 µM; in [4], greater than 100 µM; in [5], greater than 56.9 µM; in experiment [6], greater than 100 µM. Further, the TGI in experiment [7] is greater than 100 µM; in [8], greater than 100 µM; in experiment [9], greater than 100 µM; in experiment [10], greater than 76 µM.
With `Nc1nc(N)c(N=Nc2ccc(C(=O)O)c(O)c2)c(N)n1`, the TGI in experiment [1], in experiment [2], in [3], in experiment [4], in experiment [5] and in experiment [6] was greater than 100 µM in each case. In addition, the TGI in experiment [7], in [8], in experiment [9] and in experiment [10] was greater than 100 µM throughout.
As to `CN(O)C(=S)c1ccccc1`, the TGI was greater than 55.4 µM in experiment [1]; greater than 100 µM in experiment [2]; 1.68 µM in [3]; greater than 100 µM in experiment [4]; 14.5 µM in experiment [5]; 31.8 µM in experiment [6]. Besides, the TGI was greater than 100 µM in experiment [7], greater than 100 µM in experiment [8], greater than 100 µM in experiment [9] and 18.3 µM in experiment [10].
`COC(=O)C1=C(C(=O)OC)C2OC1c1cc3ccccc3cc12`: the TGI in experiment [1] was 30.8 µM; in [2], 4.09 µM; in experiment [3], 5.41 µM; in [4], 33.5 µM; in [5], 3.29 µM; in experiment [6], greater than 58.1 µM. The TGI is 11.3 µM in experiment [7], 43.6 µM in experiment [8], 11.3 µM in experiment [9] and 46.3 µM in experiment [10].
Turning to `O=C(Nc1cccnc1)c1ccc2ccc3ccc(C(=O)Nc4cccnc4)nc3c2n1`, the GI50 was 0.3 µM in [1]; 0.324 µM in experiment [2]; 0.0876 µM in experiment [3]; 0.0845 µM in experiment [4]; 0.11 µM in experiment [5]; 0.0546 µM in [6]. In addition, the GI50 in experiment [8] is 0.434 µM; in experiment [10] it was 0.0537 µM. Further, the TGI was greater than 100 µM in experiment [1]; greater than 100 µM in experiment [2]; greater than 100 µM in experiment [3]; greater than 100 µM in experiment [4]; 0.342 µM in experiment [5]; greater than 100 µM in experiment [6]. Moreover, the TGI in [7], in [8] and in [9] was greater than 100 µM each time.
Take `CCOC(=O)c1csc(NC(=O)COc2cccc(/C=C3\CSc4ccccc4C3=O)c2)n1`: the GI50 in [1] was 1.38 µM; in [2], 2.51 µM; in experiment [3], greater than 100 µM; in experiment [4] it was 9.19 µM; in [5], 2.86 µM; in [6], 0.289 µM. The GI50 is 1.04 µM in experiment [7], 1.45 µM in [8], 2.11 µM in [9] and 9.3 µM in experiment [10]. In addition, the TGI was 6.58 µM in experiment [1]; 6.18 µM in experiment [2]; greater than 100 µM in [3]; 22.7 µM in [4]; 11.2 µM in experiment [5]; 1.35 µM in [6]. The TGI in experiment [7] is 5.42 µM; in [8] it was 7.36 µM; in experiment [9], 9.62 µM; in experiment [10], 25 µM.
For the molecule `CCCN1C(=O)/C(=C/c2ccc(O)cc2)SC1=Nc1ccc(OC)cc1`, the GI50 was 16.8 µM in [1]; 19.4 µM in experiment [2]; 12.4 µM in [3]; 19.6 µM in experiment [4]; 11.7 µM in [5]; 10.6 µM in experiment [6]. For the same molecule, the GI50 in [7] was 15.9 µM; in experiment [8] it was 4.48 µM; in experiment [9], 18.4 µM; in experiment [10], 17.6 µM. Besides, the TGI was determined as 34.5 µM in [1]; 41 µM in experiment [2]; 42 µM in [3]; 45.5 µM in experiment [4]; 28.3 µM in [5]; 28.7 µM in [6]. Also, the TGI in experiment [7] came to 29.6 µM; in experiment [8], 23.3 µM; in experiment [9] it was 39 µM; in experiment [10], 66.7 µM.
